In one data set the test system is ICAM-1 and VCAM-1. Kind of data set: ICAM-1 and VCAM-1 on LPS-stimulated RAW264.7 macrophages by flow cytometry. To be noted: CV122 50 µM 3 h, LPS 5 µg mL−1 1 h. Format: cell-based, mouse. Here is the method:
Each group of mice was euthanized 24 h after LPS injection, spleens were harvested, red blood cells were lysed to detect splenocyte apoptosis, and the ratio of CD3^+CD4^+ T cells, CD3^+CD8^+ T cells, CD3^−CD19^+ B cells in spleen cells and lymph nodes quantified. Antibodies were: FITC‐Annexin V and PI; APC‐CD3, FITC‐CD4, PE‐CD8a, and PE‐CD19. Each group of mice was euthanized 12 h after LPS injection, Lung, kidney, and spleens were harvested, red blood cells were lysed to detect the ratio of macrophages in multiple organs, Antibodies were: FITC anti‐mouse F4/80; APC anti‐mouse CD86. Flow cytometry was used to quantify the adhesion molecules ICAM‐1 and VCAM‐1 on the surface of RAW264.7 cells and HUVECs. CV122 (50 µM) was incubated with the cells for 3 h, LPS (5 µg mL^−1) and TNF‐α (20 ng mL^−1) were used to stimulate the cells for 1 h, and the cells were collected. FITC anti‐mouse CD54 antibody and AF647 anti‐mouse CD106 antibody were incubated for 30 min at room temperature in the dark, PBS was added at 1000 rpm, and the cells were centrifuged for 7 min. A 200‐mesh copper mesh was used to filter the cells into a flow cytometer, and a flow cytometer (BD Biosciences) was used for detection.
A general note: A flow cytometer gives signals particle by particle.

Another data set has as its system TNF-α, IL-6, IL-1β. Nature of the data set: Cytokine ELISA in serum and organs of LPS-induced septic mice. It counts as in vivo, mouse. On the procedure:
For LPS‐induced sepsis model experiments, twenty male C57BL/6J mice were randomly divided into four groups (n = 5 in each group). Mice in group 1 were injected with 0.9% NaCl, while mice in groups 2–4 were injected intraperitoneally with LPS (20 mg kg^−1). After 30 min, mice in group 3 were injected with 40 mg kg^−1 CV122 and mice in group 4 were injected with 40 mg kg^−1 Suramin. After 3 h, blood was taken and the lungs, liver, spleen, kidney heart, and brain were taken. For CLP experiments, the mice were euthanized 24 h after the establishment of the sepsis model. Blood samples were collected from the eyeballs of mice, the lungs were taken. These organs were ground at 0.1 g mL^−1 in PBS, centrifuged and the supernatant collected. Serum and organ tissue supernatants were used to detect cytokine levels using the mouse TNF‐α, IL‐6, IL‐1β ELISA MAXTM Deluxe Set.
For orientation: ELISA stands for enzyme-linked immunosorbent assay.

Data set [1] deals with RAW264.7 macrophages. Nature of the data set: Cell surface glycocalyx of LPS-stimulated RAW264.7 macrophages (WGA-FITC, atomic force microscopy). It counts as cell-based, mouse. Here is the method: (§1) Lungs were harvested from LPS‐induced and CLP‐induced sepsis model mice, and frozen sections were prepared. HUVECs and RAW264.7 macrophages were incubated with CV122 for 3 h, and TNF‐α (20 ng mL^−1) and LPS (5 µg mL^−1) were used to stimulate cells for 1 h. Lung tissue, HUVECs, and RAW264.7 macrophages were fixed with 4% paraformaldehyde for 10 min before permeabilization with 0.5% Triton X‐100 for 10 min. The membrane was sealed with 4% skimmed milk powder and incubated at room temperature for 50 min. Primary antibodies were rabbit anti‐heparanase polyclonal antibodies overnight at 4 °C. The diluent of the secondary antibody FITC‐WGA‐lectin was kept at room temperature and protected from light for 1 h. Nuclei were stained with DAPI. After 120 s, images were acquired with a confocal microscope (LSM 800, Zeiss, Germany).
HUVECs and RAW264.7 cells in the logarithmic growth phase were digested, centrifuged, and then plated in a six‐well plate at a density of 1 × 10[5] cells per well. CV122 was incubated for 3 h, and cells were stimulated with LPS (5 µg mL^−1) and TNF‐α (20 ng mL^−1) for 5 h. Cell‐covered slides were carefully removed and placed on the stage of the atomic force microscope with needle parameters: elastic coefficient 0.4 N M^−1, sensitivity 65.63 nm V^−1, with otherwise the usual atomic force microscope (Bruker, Billerica, MA) parameters used.

Data set [2] deals with RAW264.7 macrophages. Kind of data set: Cell survival assay (CCK-8) in RAW264.7 macrophages. Particulars: 50 to 200 µM.
The next data set has as its system CLP-induced septic mice. Particulars: mouse, in vivo.
For another data set, the system named is HPA. Kind of data set: HPA expression in TNF-α-stimulated HUVECs (immunofluorescence, western blotting). Format: cell-based, human. Particulars: CV122 50 µM 3 h, then TNF-α 20 ng mL−1 1 h. On the procedure:
as §1
CV122 (50 µM) was incubated with HUVECs and RAW264.7 cells for 3 h, and LPS (5 µg mL^−1) and TNF‐α (20 ng mL^−1) were incubated for 1 h. Total protein was extracted with RIPA tissue/cell lysate solution. Lung tissues were collected and homogenized in cold RIPA buffer to obtain proteins. The BCA method was used to quantify protein. After full denaturing, proteins were separated by 10% SDS‐PAGE and transferred to PVDF membrane. […] Blots were developed with a chemiluminescent HRP substrate, and the protein bands were detected with a chemiluminescence imager (MiniChemi610).

From article PMC11304236, “A Novel Drug Candidate for Sepsis Targeting Heparanase by Inhibiting Cytokine Storm” (Advanced Science, 2024) come the findings set out here.

SMILES strings stand for the structures.

Regarding `COC1OC(COS(=O)(=O)O)C(OC2OC(C(=O)O)C(OC3OC(COS(=O)(=O)O)C(OC4OC(C(=O)O)C(OC5OC(COS(=O)(=O)O)C(O)C(O)C5NS(=O)(=O)O)C(OS(=O)(=O)O)C4O)C(OS(=O)(=O)O)C3NS(=O)(=O)O)C(O)C2OS(=O)(=O)O)C(O)C1NS(=O)(=O)O` (centres unmarked) [CV122], the “ICAM-1 and VCAM-1 expression” value in the data set with ICAM-1 and VCAM-1 is given as “reversed after CV122 treatment”. In addition, in the data set with TNF-α, IL-6, IL-1β (40 mg kg−1, 30 min after LPS 20 mg kg−1 i.p., 3 h after LPS, vs LPS group), the “TNF-α, IL-6 and IL-1β levels in serum and lungs” value is “significantly suppressed”. Moreover, in the data set on TNF-α, IL-6, IL-1β (40 mg kg−1, 3 h after LPS), the “TNF-α, IL-6 and IL-1β in tissue extracts of brains, hearts, livers, kidneys and spleens” value is “significantly inhibited the secretion of proinflammatory cytokines in these organs to a greater extent than Suramin”. Further, the “TNF-α levels in serum” value with TNF-α, IL-6, IL-1β (candidate screening in LPS-induced septic mouse model (Figure 1C,D)) was “significantly decreasing”. In the data set with RAW264.7 macrophages [1], the “glycocalyx by WGA-FITC fluorescence” value is reported as “significantly protected the glycocalyx of macrophages” and the “glycocalyx structure by atomic force microscopy” value was “protected against disruption of the glycocalyx structure”. Also, the “effect on survival of RAW264.7 macrophages” value with RAW264.7 macrophages [2] was “no significant inhibitory effect”. Moreover, in the data set on CLP-induced septic mice, the “HPA levels in the lungs” value is given as “significantly reduced the HPA levels in the lungs”; the “TNF-α, IL-6 and IL-1β in serum and lungs” value is “reduced the level”; the body weight course entry is on record as “gradually normalized the septic mice”; the “cell surface glycocalyx in lungs (WGA)” value is “protected cell surface glycocalyx”. In addition, the “lung pathological damage (HE)” value in the data set with CLP-induced septic mice is listed as “significantly rescued”. Moreover, in the data set on CLP-induced septic mice (sc), the survival rate worked out at 80%. Further, in the data set on HPA, the “HPA expression in HUVECs” value was “significantly inhibited HPA expression in HUVECs”.
